Experimental data: patent publication US11447495B2, “Substituted benzo[f]imidazo[1,5-a][1,4]diazepines as GABA(a) receptor modulators” (priority 2016, dated 2022)

How the values were obtained:
lung cells = experiment: Lung cell proliferation by EdU incorporation; type: in vivo; details: Ova s/c mice, treated versus non-treated
Experimental: ASM hyperplasia was determined by incooperation of EdU into the DNA of newly formed cells. Herein, at the end of the ovalbumin sensitization and challenge protocol, mice received a single i.p. injection of EdU (Invitrogen, Carlsbad, Calif.) at a dose of 100 mg/kg. Mice were euthanized 4 hours after injection and the lungs formalin fixed, harvested and paraffin embedded. 6 μm sections of formalin fixed and paraffin embedded lung sections were mounted onto Fisher Superfrost Plus Slides. EdU staining was conducted using Click-iT™ EdU imaging kit (Invitrogen, Carlsbad, Calif.) according to manufacturer's instructions. Briefly lungs were deparaffinized in histoclear and rehydrated in graded ethanol. Tissue sections were washed twice with 3% bovine serum albumin (BSA) in PBS and permeablized with 0.5% Triton X-100 in PBS for 20 minutes. The sections were again washed twice with 3% BSA in PBS and then incubated with a Click-iT™ reaction cocktail containing Click-iT™ reaction buffer, CuSO4, Alexa Fluor® 488 Azide, and reaction buffer additive for 30 minutes in the dark. […] Lung sections of non-treated and GL-II-93 treated Ova s/c mice were analyzed for the incooperation of EdU, a thymidine analog that can be visualized after click chemistry with a fluorescent azide. For the negative control EdU was not injected resulting in no visible fluorescence. […]

[1] = system: α1β3γ2 or α4β3γ2 GABAAR expressing HEK293T cells; experiment: Automated patch clamp with EC20 GABA in HEK293T cells; type: cell-based; details: GABA EC20, 3 seconds application
[2] = system: human airway smooth muscle; experiment: Relaxation of acetylcholine contracted human airway smooth muscle strips; details: EC50 acetylcholine, 100 μM compound, 15-60 minutes
[3] = system: GABAA receptor subtypes α1β3γ2, α2β3γ2, α3β3γ2, α4β3γ2 and α5β3γ2; experiment: Two-electrode voltage clamp, modulation of GABA (EC3-5) elicited currents in Xenopus oocytes; type: cell-based
Description: Compounds having selective activity bias for α4 and α5-GABAAR can be identified. Patch clamp assays are used to quantify chloride flux induced inward currents resulting from agonism of GABAAR containing single α-subunits. […] For electrophysiological experiments with Xenopus oocytes (Ramerstorfer et al. European journal of pharmacology 2010, 636, 8-27) mature female Xenopus laevis (Nasco, Fort Atkinson, Wis., USA) were anaesthetized in a bath of ice-cold 0.17% Tricain (Ethyl-m-aminobenzoate) before decapitation and transfer of the frog's ovary to ND96 medium (96 mM NaCl, 2 mM KCl, 1 mM MgCl2, 5 mM HEPES; pH 7.5). Following incubation in 1 mg/ml collagenase (Sigma-Aldrich, St. Louis, Mo., USA) for 30 minutes, stage 5 to 6 oocytes were singled out of the ovary and defolliculated using a platinum wire loop. […] Maximum currents measured in mRNA injected oocytes were in the microampere range for all receptor subtypes. […] Data were digitized using a Digidata 1322A or 1550 data acquisition system (Axon Instruments, Union City, Calif., USA), recorded using Clampex 10.5 software (Molecular Devices, Sunnyvale, Calif., USA), and analyzed using Clampfit 10.5 and GraphPad Prism 6.0 (La Jolla, Calif., USA) software. […]

## C[C@H]1N=C(c2ccccc2F)c2cc(Br)ccc2-n2cnc(C(=O)O)c21 [GL-II-93, (R)-8-bromo-6-(2-fluorophenyl)-4-methyl-4H-benzo[f]imidazo[1,5-a][1,4]diazepine-3-carboxylic acid]
Lung cells
  proliferation of lung cells (EdU): Non-treated Ova S/C mice showed a high proliferation rate in comparison to GL-II-93 treated animals

## CCOC(=O)c1ncn2c1[C@@H]1CCCN1C(=O)c1cc(O)ccc1-2 [RJ-02-50, ethyl (S)-7-hydroxy-9-oxo-11,12,13,13a-tetrahydro-9H-benzo[e]imidazo[5,1-c]pyrrolo[1,2-a][1,4]diazepine-1-carboxylate]
[1]
  GABAA receptor subtype selectivity, current response: positive α4β3γ2-selective GABAA receptor modulator

## C#Cc1ccc2c(c1)C(c1ccccc1F)=N[C@H](C)c1c(C(=O)O)ncn1-2 [SH-053-2′F-R-CH3-Acid, (R)-8-ethynyl-6-(2-fluorophenyl)-4-methyl-4H-benzo[f]imidazo[1,5-a][1,4]diazepine-3-carboxylic acid]
[2]
  human airway smooth muscle contractile force: reduced the constriction of human airway smooth muscle after 15 minutes for a period of at least 60 minutes
[3]
  GABAA receptor subtype selectivity, modulation of GABA elicited currents: positive α5β3γ2-selective GABAA receptor modulator
